Here are results for eleven compounds from patent US8471005B2 (Cephalon, Inc., priority 2008, dated 2013).

Molecules are shown by their SMILES.

Experiment [1] addresses T1, JAK2 (Homo sapiens, UniProt O60674).
T1 construct: host or cells: baculovirus expression system
Kind of experiment: Recombinant Human JAK2 Kinase Assay (TRF). Format: biochemical. As to conditions: JAK2 kinase inhibition, 0.2 μM ATP; read-out: JAK2 Potency. An outline of the steps: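 TRF read-out: Eu-N1 PY100 anti-phosphotyrosine antibody detects product. Enzyme is baculovirus-expressed JAK2 at 15 ng/ml; substrate is a biotinyl 15-mer peptide bound to Neutravidin-coated wells. Buffer 20 mM HEPES pH 7.2, 0.2 μM ATP, 1 mM MnCl2, 0.1% BSA, 2.5% DMSO final; 20 min, RT.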

Experiment [2] deals with T2, ALK (Homo sapiens, UniProt Q9UM73).
T2 construct: host or cells: baculovirus expression system
Kind of experiment: ALK Kinase Assay (ELISA/TRF, PLC-γ substrate). Format: biochemical. As to conditions: ALK kinase inhibition, 1 μM ATP; read-out: ALK Potency. An outline of the steps:
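PLC-γ substrate coated at 10 μg/mL in TBS; reaction started with 30 ng/ml ALK, run 15 min at 37° C. Phosphoproduct detected by TRF with Eu-N1-labeled PT66 anti-phosphotyrosine antibody. IC50 from sigmoidal variable-slope fit of percent inhibition versus log concentration.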

T2 sequence (Q9UM73 19-1620): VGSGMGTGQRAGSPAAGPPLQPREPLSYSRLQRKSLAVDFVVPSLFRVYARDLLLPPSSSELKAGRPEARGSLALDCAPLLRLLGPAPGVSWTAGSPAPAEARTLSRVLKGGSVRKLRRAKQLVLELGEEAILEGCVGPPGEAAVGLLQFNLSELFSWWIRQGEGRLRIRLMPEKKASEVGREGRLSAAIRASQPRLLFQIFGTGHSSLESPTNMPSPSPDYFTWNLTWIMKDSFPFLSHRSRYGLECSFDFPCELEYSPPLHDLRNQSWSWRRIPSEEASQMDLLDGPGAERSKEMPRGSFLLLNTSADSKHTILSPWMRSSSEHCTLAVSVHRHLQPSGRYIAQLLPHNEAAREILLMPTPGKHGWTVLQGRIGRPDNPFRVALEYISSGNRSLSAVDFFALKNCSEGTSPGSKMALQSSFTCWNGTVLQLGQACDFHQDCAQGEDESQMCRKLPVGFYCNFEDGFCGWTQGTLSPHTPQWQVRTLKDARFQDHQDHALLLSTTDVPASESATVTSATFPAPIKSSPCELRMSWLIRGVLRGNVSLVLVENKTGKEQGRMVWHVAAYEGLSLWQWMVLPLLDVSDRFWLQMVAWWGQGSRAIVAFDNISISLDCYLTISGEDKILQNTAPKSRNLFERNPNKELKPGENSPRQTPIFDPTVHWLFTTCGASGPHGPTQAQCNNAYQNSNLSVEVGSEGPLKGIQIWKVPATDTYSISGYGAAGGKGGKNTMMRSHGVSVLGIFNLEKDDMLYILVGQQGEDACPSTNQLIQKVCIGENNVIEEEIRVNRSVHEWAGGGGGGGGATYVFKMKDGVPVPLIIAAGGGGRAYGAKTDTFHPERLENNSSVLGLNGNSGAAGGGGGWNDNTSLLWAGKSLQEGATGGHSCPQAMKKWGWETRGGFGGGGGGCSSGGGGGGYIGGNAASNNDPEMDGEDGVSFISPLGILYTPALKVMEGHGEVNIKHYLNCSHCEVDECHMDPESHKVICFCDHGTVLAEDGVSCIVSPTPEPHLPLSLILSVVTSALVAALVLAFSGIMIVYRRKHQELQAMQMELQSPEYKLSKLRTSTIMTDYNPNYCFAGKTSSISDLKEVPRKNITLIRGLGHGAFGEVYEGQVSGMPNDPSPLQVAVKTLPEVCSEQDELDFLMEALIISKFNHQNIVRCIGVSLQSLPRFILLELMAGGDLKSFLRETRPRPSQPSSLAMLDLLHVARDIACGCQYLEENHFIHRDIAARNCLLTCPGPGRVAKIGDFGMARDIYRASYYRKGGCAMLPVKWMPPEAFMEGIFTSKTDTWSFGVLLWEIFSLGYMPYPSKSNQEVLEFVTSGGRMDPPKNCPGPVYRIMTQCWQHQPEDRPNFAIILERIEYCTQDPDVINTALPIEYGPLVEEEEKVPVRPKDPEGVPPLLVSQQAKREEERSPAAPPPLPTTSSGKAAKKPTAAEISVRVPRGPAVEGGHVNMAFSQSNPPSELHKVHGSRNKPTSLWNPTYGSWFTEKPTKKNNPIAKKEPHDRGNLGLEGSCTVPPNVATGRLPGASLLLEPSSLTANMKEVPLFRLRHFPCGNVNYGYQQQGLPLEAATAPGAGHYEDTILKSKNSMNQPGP
T1 sequence (O60674 whole entry): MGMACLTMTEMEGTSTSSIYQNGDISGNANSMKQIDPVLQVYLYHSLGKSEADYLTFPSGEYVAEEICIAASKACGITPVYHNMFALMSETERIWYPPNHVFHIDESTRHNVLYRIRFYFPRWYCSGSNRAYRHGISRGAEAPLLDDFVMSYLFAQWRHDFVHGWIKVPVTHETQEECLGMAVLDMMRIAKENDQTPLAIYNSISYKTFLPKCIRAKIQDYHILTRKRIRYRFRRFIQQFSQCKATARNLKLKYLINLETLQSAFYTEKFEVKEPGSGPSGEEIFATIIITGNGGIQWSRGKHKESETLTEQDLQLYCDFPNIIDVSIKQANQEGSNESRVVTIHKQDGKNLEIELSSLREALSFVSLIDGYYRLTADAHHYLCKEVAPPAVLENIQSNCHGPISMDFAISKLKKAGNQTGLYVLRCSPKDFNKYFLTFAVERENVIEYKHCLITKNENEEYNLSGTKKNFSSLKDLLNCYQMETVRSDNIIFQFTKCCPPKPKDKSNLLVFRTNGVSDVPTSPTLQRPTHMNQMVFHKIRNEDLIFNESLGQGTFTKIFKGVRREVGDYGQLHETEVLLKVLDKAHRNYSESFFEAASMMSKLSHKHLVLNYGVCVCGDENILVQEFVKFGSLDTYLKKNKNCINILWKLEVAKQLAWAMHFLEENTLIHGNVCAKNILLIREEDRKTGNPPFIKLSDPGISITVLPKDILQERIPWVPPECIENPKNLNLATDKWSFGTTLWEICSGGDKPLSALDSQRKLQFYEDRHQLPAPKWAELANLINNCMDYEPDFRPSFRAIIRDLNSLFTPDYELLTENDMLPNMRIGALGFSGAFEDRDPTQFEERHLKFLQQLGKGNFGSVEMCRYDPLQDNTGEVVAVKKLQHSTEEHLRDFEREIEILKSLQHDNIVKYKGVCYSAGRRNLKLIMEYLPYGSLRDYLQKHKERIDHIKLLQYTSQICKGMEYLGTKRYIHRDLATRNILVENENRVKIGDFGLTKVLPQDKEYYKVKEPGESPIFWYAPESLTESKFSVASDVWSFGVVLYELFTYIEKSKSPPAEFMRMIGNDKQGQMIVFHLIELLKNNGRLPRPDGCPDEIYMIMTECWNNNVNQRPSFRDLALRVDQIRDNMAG

Turning to `CC(C)(C)NS(=O)(=O)c1cccc(-c2ccc3cnc(Nc4ccc5nc(CO)[nH]c5c4)nn23)c1` [Example 1066, N-tert-Butyl-3-[2-(2-hydroxymethyl-3H-benzoimidazol-5-ylamino)-pyrrolo[2,1-f][1,2,4]triazin-7-yl]-benzenesulfonamide], the results for the IC50 in experiment [1] and in experiment [2] were < 100 nM and 1000 to 10000 nM, respectively.

For the compound `COc1ccccc1-c1ccc2cnc(Nc3ccc4nc(CO)[nH]c4c3)nn12` [Example 1067, {6-[7-(2-Methoxy-phenyl)-pyrrolo[2,1-f][1,2,4]triazin-2-ylamino]-1H-benzoimidazol-2-yl}-methanol], the IC50 was < 100 nM in experiment [1] and 100 to 1000 nM in experiment [2].

As to `O=S(=O)(c1cccc(-c2ccc3cnc(Nc4ccc5nc(CO)[nH]c5c4)nn23)c1)N1CCOCC1` [Example 1068, (6-{7-[3-(Morpholine-4-sulfonyl)-phenyl]-pyrrolo[2,1-f][1,2,4]triazin-2-ylamino}-1H-benzoimidazol-2-yl)-methanol], the IC50 in experiment [1] was < 100 nM; in experiment [2] it was 1000 to 10000 nM.

As to `COc1ccc(-c2ccc3cnc(Nc4ccc5nc(CO)[nH]c5c4)nn23)cn1` [Example 1069, {6-[7-(6-Methoxy-pyridin-3-yl)-pyrrolo[2,1-f][1,2,4]triazin-2-ylamino]-1H-benzoimidazol-2-yl}-methanol], the values for the IC50 in experiment [1] and in experiment [2] were < 100 nM and 1000 to 10000 nM, respectively.

As to `O=S(=O)(c1cccc(-c2ccc3cnc(Nc4ccc5nc(CO)[nH]c5c4)nn23)c1)N1CCCC1` [Example 1070, (6-{7-[3-(Pyrrolidine-1-sulfonyl)-phenyl]-pyrrolo[2,1-f][1,2,4]triazin-2-ylamino}-1H-benzoimidazol-2-yl)-methanol], the results for the IC50 in experiment [1] and in experiment [2] were < 100 nM and 1000 to 10000 nM, respectively.

Turning to `CN(c1ccccc1-c1ccc2cnc(Nc3ccc4nc(CO)[nH]c4c3)nn12)S(C)(=O)=O` [Example 1071, N-{2-[2-(2-Hydroxymethyl-3H-benzoimidazol-5-ylamino)-pyrrolo[2,1-f][1,2,4]triazin-7-yl]-phenyl}-N-methyl-methanesulfonamide], the IC50 in experiment [1] was < 100 nM; in experiment [2], 100 to 1000 nM.

As to `COc1ccc(-c2ccc3cnc(Nc4ccc(C5C(=O)N(C)CCN5C)cc4)nn23)cn1` (stereo not shown) [Example 1072, 3-{4-[7-(6-Methoxy-pyridin-3-yl)-pyrrolo[2,1-f][1,2,4]triazin-2-ylamino]-phenyl}-1,4-dimethyl-piperazin-2-one], the IC50 in experiment [1] is < 100 nM; in experiment [2], 1000 to 10000 nM.

For the compound `CN1CCN(C)C(c2ccc(Nc3ncc4ccc(-c5ccccc5N(C)S(C)(=O)=O)n4n3)cc2)C1=O` (stereo not shown) [Example 1073, N-(2-{2-[4-(1,4-Dimethyl-3-oxo-piperazin-2-yl)-phenylamino]-pyrrolo[2,1-f][1,2,4]triazin-7-yl}-phenyl)-N-methyl-methanesulfonamide], the IC50 in experiment [1] is < 100 nM; in experiment [2], 100 to 1000 nM.

As to `CN1CCN(C)C(c2ccc(Nc3ncc4ccc(-c5cccc(S(=O)(=O)NC(C)(C)C)c5)n4n3)cc2)C1=O` (stereo not shown) [Example 1074, N-tert-Butyl-3-{2-[4-(1,4-dimethyl-3-oxo-piperazin-2-yl)-phenylamino]-pyrrolo[2,1-f][1,2,4]triazin-7-yl}-benzene sulfonamide], the IC50 in experiment [1] was < 100 nM; in experiment [2] it was 1000 to 10000 nM.

In the case of `CN1CCN(C)C(c2ccc(Nc3ncc4ccc(-c5cccc(S(=O)(=O)N6CCOCC6)c5)n4n3)cc2)C1=O` (stereo not shown) [Example 1075, 1,4-Dimethyl-3-(4-{7-[3-(morpholine-4-sulfonyl)-phenyl]-pyrrolo[2,1-f][1,2,4]triazin-2-ylamino}-phenyl)-piperazin-2-one], the IC50 in experiment [1] was < 100 nM; in experiment [2], > 10000 nM.

In the case of `COc1ccccc1-c1ccc2cnc(Nc3ccc(C4C(=O)N(C)CCN4C)cc3)nn12` (stereo not shown) [Example 1076, 3-{4-[7-(2-Methoxy-phenyl)-pyrrolo[2,1-f][1,2,4]triazin-2-ylamino]-phenyl}-1,4-dimethyl-piperazin-2-one], the IC50 in experiment [1] is < 100 nM; in experiment [2] it was 1000 to 10000 nM.
